According to US10391095B2, “DNA-PK inhibitors” (Vertex Pharmaceuticals Incorporated, priority 2012, dated 2019):
pKi: −log10 of the molar value.

Target: DNA-PK (Homo sapiens, UniProt P78527)
Experiment: DNA-PK inhibition assay (radiometric, 33P-ATP)
Assay type: biochemical
Conditions: 100 μM ATP, competitive tight-binding fit
Procedure: Compounds were screened for their ability to inhibit DNA-PK kinase using a standard radiometric assay. Briefly, in this kinase assay the transfer of the terminal ^33P-phosphate in ^33P-ATP to a peptide substrate is interrogated. The assay was carried out in 384-well plates to a final volume of 50 μL per well containing approximately 6 nM DNA-PK, 50 mM HEPES (pH 7.5), 10 mM MgCl2, 25 mM NaCl, 0.01% BSA, 1 mM DTT, 10 μg/mL sheared double-stranded DNA (obtained from Sigma), 0.8 mg/mL DNA-PK peptide ([…] obtained from American Peptide), and 100 μM ATP. Accordingly, compounds of the invention were dissolved in DMSO to make 10 mM initial stock solutions. Serial dilutions in DMSO were then made to obtain the final solutions for the assay. A 0.75 μL aliquot of DMSO or inhibitor in DMSO was added to each well, followed by the addition of ATP substrate solution containing ^33P-ATP (obtained from Perkin Elmer). The reaction was started by the addition of DNA-PK, peptide and ds-DNA. After 45 min, the reaction was quenched with 25 μL of 5% phosphoric acid. The reaction mixture was transferred to MultiScreen HTS 384-well PH plates (obtained from Millipore), allowed to bind for one hour, and washed three times with 1% phosphoric acid. Following the addition of 50 μL of Ultima Gold™ high efficiency scintillant (obtained from Perkin Elmer), the samples were counted in a Packard TopCount NXT Microplate Scintillation and Luminescence Counter (Packard BioScience). The Ki values were calculated using Microsoft Excel Solver macros to fit the data to the kinetic model for competitive tight-binding inhibition.

Compound	pKi
CCOc1cc(-c2cc(NC[C@@H](C)c3cccc4c(C(=O)NC)ccnc34)ncn2)ccn1 [Compound 962]	> 7.52
CCOc1ncc(-c2cc(NC[C@@H](C)c3cccc4c(C(=O)NC)ccnc34)ncn2)cn1 [Compound 607]	> 7.52
Cc1ccc(-c2cc(NC[C@@H](C)c3ccnc4c3OCC4(C)C)ncn2)cn1 [Compound 583]	> 7.52
Cc1ccc(-c2cc(NCC(C)c3cccnc3OC3CCC3)ncn2)cn1 (centres unmarked) [Compound 247]	> 7.52
CNC(=O)c1ccnc2c([C@H](C)CNc3cc(-c4ccc(N5CCC6(COC6)C5)nc4)ncn3)cccc12 [Compound 735]	> 7.52
C[C@H](CNc1cc(-c2ccc3ncccc3c2)ncn1)c1ccnc2c1OCCO2 [Compound 464]	> 7.52
CNC(=O)c1ccc(C(C)CNc2cc(-c3ccc(OC4CN(C(C)=O)C4)nc3)ncn2)c(OC)c1 (centres unmarked) [Compound 327]	> 7.52
CCCNCCNc1ccc(-c2cc(NC[C@@H](C)c3cccc4c(C(=O)NC)ccnc34)ncn2)cn1 [Compound 705]	> 7.52
CNC(=O)c1ccnc2c([C@H](C)CNc3cc(-c4ccc(N5CCN(CC(F)(F)F)CC5)nc4)ncn3)cccc12 [Compound 780]	> 7.52
Cc1ccc(-c2cc(NCC(C)c3ccnc4c3OCC4)ncn2)cn1 (centres unmarked) [Compound 289]	> 7.52
CNC(=O)c1ccnc2c([C@H](C)CNc3cc(-c4ccc(C)s4)ncn3)cccc12 [Compound 839]	> 7.52
CNC(=O)c1c(N2CCOCC2)cnc2c([C@H](C)CNc3cc(-c4ccc(C)nc4)ncn3)cccc12 [Compound 767]	> 7.52
CNC(=O)c1ccc(C(C)CNc2cc(-c3cnc4c(cnn4C4CCN(C)CC4)c3)ncn2)c(OC)c1 (centres unmarked) [Compound 155]	> 7.52
CN1CCN(c2ccc(-c3cc(NCCc4ccccc4OC4CC4)ncn3)cn2)CC1 [Compound 87]	> 7.52
CCOc1ccccc1CCNc1cc(-c2ccc(C)nc2)ncn1 [Compound 57]	> 7.52
CNC(=O)c1ccnc2c([C@H](C)CNc3cc(-c4ccc(N5C[C@@H]6CCN(C)[C@@H]6C5)nc4)ncn3)cccc12 [Compound 720]	> 7.52
CNC(=O)c1ccc(C(C)CNc2cc(-c3ccc4ncccc4c3)ncn2)c(OC)c1 (centres unmarked) [Compound 256]	> 7.52
CNC(=O)c1ccnc2c([C@H](C)CNc3cc(-c4ccc(C(C)(C)C#N)cc4)ncn3)cccc12 [Compound 679]	> 7.52
CNC(=O)c1ccnc2c([C@H](C)CNc3cc(-c4ccc(NC5CCN(Cc6ccccc6)C5)nc4)ncn3)cccc12 (some centres unmarked) [Compound 701]	> 7.52
CNC(=O)c1c(-n2ccnc2)cnc2c([C@H](C)CNc3cc(-c4ccc(C)nc4)ncn3)cccc12 [Compound 763]	> 7.52
CNC(=O)c1ccnc2c([C@H](C)CNc3cc(-c4cnc(N)c(F)c4)ncn3)cccc12 [Compound 867]	> 7.52
CNC(=O)c1ccc([C@H](C)CNc2cc(-c3ccc(N(C)C4CCN(C)CC4)nc3)ncn2)c(OC)c1 [Compound 347]	> 7.52
CNC(=O)c1ccc([C@H](C)CNc2cc(-c3ccc(C(=O)N4CCN(C)CC4)cc3)ncn2)c(OC)c1 [Compound 309]	> 7.52

Compound	pKi
CNC(=O)c1ccnc2c([C@H](C)CNc3cc(-c4ccc(N[C@@H]5COC[C@H]5O)nc4)ncn3)cccc12 [Compound 726]	> 7.52
CCc1cc(-c2cc(NC[C@@H](C)c3cccc4c(C(=O)NC)ccnc34)ncn2)cc(CC)n1 [Compound 953]	> 7.52
CNC(=O)c1ccnc2c([C@H](C)CNc3cc(-c4ccnc(C)c4)ncn3)ccc(F)c12 [Compound 903]	> 7.52
CNC(=O)c1ccnc2c([C@H](C)CNc3cc(-c4cnc(N5CCC(O)CC5)nc4)ncn3)cccc12 [Compound 729]	> 7.52
COc1ccccc1CCNc1cc(-c2ccc(N3CCCC3)nc2)ncn1 [Compound 46]	> 7.52
CNC(=O)c1ccnc2c([C@H](C)CNc3cc(-c4ccc(C)nc4)ncn3)ccnc12 [Compound 624]	> 7.52
CNC(=O)c1ccnc2c([C@H](C)CNc3cc(-c4cnc(OC)c(C)c4)ncn3)cccc12 [Compound 945]	> 7.52
CNC(=O)c1ccc(C(C)CNc2cc(-c3cnc4c(cnn4C4CN(C(C)=O)C4)c3)ncn2)c(OC)c1 (centres unmarked) [Compound 248]	> 7.52
CNC(=O)c1ccnc2c([C@H](C)CNc3cc(-c4ccc(C(C)C)nc4)ncn3)ccc(F)c12 [Compound 853]	> 7.52
CNC(=O)c1ccnc2c([C@H](C)CNc3cc(-n4ccnc4)ncn3)cccc12 [Compound 743]	> 7.52
CNC(=O)c1c(C#N)cnc2c([C@H](C)CNc3cc(-c4ccc(C)nc4)ncn3)cccc12 [Compound 766]	> 7.52
Cc1ccc(-c2cc(NC[C@@H](C)c3cncc4c3OCCN4)ncn2)cn1 [Compound 837]	> 7.52
CCNc1ccc(-c2cc(NC[C@@H](C)c3cccc4c(C(=O)NC)ccnc34)ncn2)cn1 [Compound 581]	> 7.52
CC(=O)N1CCOc2c([C@H](C)CNc3cc(-c4ccc(C)nc4)ncn3)cccc21 [Compound 504]	> 7.52
CNC(=O)c1c(N(C)C)cnc2c([C@H](C)CNc3cc(-c4ccc(C)nc4)ncn3)cccc12 [Compound 765]	> 7.52
CNC(=O)c1ccnc2c([C@H](C)CNc3cc(-c4ccc(N5CCN6C(=O)OCC6C5)nc4)ncn3)cccc12 (single isomer, unassigned) [Compound 731]	> 7.52
CNC(=O)c1ccnc2c([C@H](C)CNc3cc(-c4cnc5c(c4)OCCO5)ncn3)cccc12 [Compound 935]	> 7.52
CNC(=O)c1c(F)cnc2c([C@H](C)CNc3cc(-c4cnc(OC5CCC5)nc4)ncn3)cccc12 [Compound 981]	> 7.52
CNC(=O)c1ccc([C@H](C)CNc2cc(-c3ccc(N(C)CCO)nc3)ncn2)c(OC)c1 [Compound 365]	> 7.52
COc1sccc1C(C)CNc1cc(-c2cnc3c(cnn3C3CCN(C)CC3)c2)ncn1 (centres unmarked) [Compound 264]	> 7.52
CNC(=O)c1ccnc2c([C@H](C)CNc3cc(-c4ccc(C5CCC5)nc4)ncn3)cccc12 [Compound 845]	> 7.52
CNC(=O)c1ccnc2c([C@H](C)CNc3cc(-c4ccc(NC(=O)OC)cc4)ncn3)cccc12 [Compound 750]	> 7.52
CC(CNc1cc(-c2cnc3c(cnn3CCO)c2)ncn1)c1cncc2c1OCCC2 (centres unmarked) [Compound 452]	> 7.52

Compound	pKi
CC(O)Cn1ncc2cc(-c3cc(NC[C@@H](C)c4ccnc5c4OCCO5)ncn3)cnc21 (single isomer, unassigned) [Compound 503]	> 7.52
COc1ccc(C(C)CNc2cc(-c3ccc(C)nc3)ncn2)c(N)n1 (centres unmarked) [Compound 642]	> 7.52
CNCCN(C)c1ccc(-c2cc(NC[C@@H](C)c3cccc4c(C(=O)NC)ccnc34)ncn2)cn1 [Compound 706]	> 7.52
CC(CNc1cc(-c2cnc3c(cnn3CCO)c2)ncn1)c1cncc2c1OCC2 (centres unmarked) [Compound 419]	> 7.52
CNC(=O)c1ccc(C(C)CNc2cc(-c3ccc(CCO)cc3)ncn2)c(OC)c1 (centres unmarked) [Compound 339]	> 7.52
CNC(=O)c1ccnc2c([C@H](C)CNc3cc(-c4ccc(C5(N)CC5)nc4)ncn3)cccc12 [Compound 939]	> 7.52
CCNc1ccc(-c2cc(NC[C@@H](C)c3ccc(F)c4c(C(=O)NC)ccnc34)ncn2)cn1 [Compound 922]	> 7.52
COCCn1ncc2cc(-c3cc(NCC(C)c4sccc4OC)ncn3)cnc21 (centres unmarked) [Compound 260]	> 7.52
CCc1ccc(-c2cc(NC[C@@H](C)c3cccc4c(C(=O)NC)ccnc34)ncn2)cn1 [Compound 789]	> 7.52
Cc1ccc(-c2cc(NC[C@@H](C)c3cccc4c(C(=O)NCC(F)(F)F)ccnc34)ncn2)cn1 [Compound 546]	> 7.52
COc1cc(C(=O)NOCc2ccccc2)ccc1C(C)CNc1cc(-c2ccc(C)nc2)ncn1 (centres unmarked) [Compound 222]	> 7.52
CNC(=O)c1ccnc2c([C@H](C)CNc3cc(-c4ccc(C)nc4)ncn3)ccc(OC)c12 [Compound 509]	> 7.52
CNC(=O)c1ccnc2c([C@H](C)CNc3cc(-c4cc(F)c(OC(C)C)c(F)c4)ncn3)cccc12 [Compound 872]	> 7.52
COc1ccc(N)cc1C(C)CNc1cc(-c2ccc(C)nc2)ncn1 (centres unmarked) [Compound 290]	> 7.52
CNC(=O)c1ccnc2c([C@H](C)CNc3cc(-c4cnc(NC)c(C#N)c4)ncn3)cccc12 [Compound 955]	> 7.52
CCOc1ncc(-c2cc(NC[C@@H](C)c3cccc4c(C(=O)NC)ccnc34)ncn2)cc1C [Compound 950]	> 7.52
COc1cc(N)ccc1C(C)CNc1cc(-c2ccc(C)nc2)ncn1 (centres unmarked) [Compound 178]	> 7.52
C=CCNc1ccc(-c2cc(NC[C@@H](C)c3ccc(C(=O)NC)cc3OC)ncn2)cn1 [Compound 387]	> 7.52
CNC(=O)c1ccnc2c([C@H](C)CNc3cc(-c4ccc5c(c4)N(C)CCO5)ncn3)cccc12 [Compound 864]	> 7.52
COc1ccccc1CCNc1cc(-c2cnc3c(cnn3CS(C)(=O)=O)c2)ncn1 [Compound 97]	> 7.52
CCNc1ccc(-c2cc(NC[C@@H](C)c3ccnc4c3OCC4)ncn2)cn1 [Compound 486]	> 7.52
CNC(=O)c1ccc(C(C)CNc2cc(-c3cnc4c(ccn4C)c3)ncn2)c(OC)c1 (centres unmarked) [Compound 189]	> 7.52
